Here are results for five compounds from patent publication US20110082080A1, “COMPOSITIONS AND METHODS OF USING THE HUMAN PROISLET PEPTIDE RECEPTOR” (CUREDM GROUP HOLDINGS, LLC, priority 2007, published 2011).

In one assay the test system is NOD mice. Kind of assay: Pilot non obese diabetic (NOD) mouse study with lysophylline (LSF). The format is in vivo. As to conditions: one NOD mouse per group; peptides given plus LSF; not statistically significant study; FIG. 11. From the text: The non obese diabetic (NOD) model is used as a model for type 1 autoimmune diabetes. This form of diabetes is the most challenging in that the underlying damage to the pancreas and its insulin production is due to autoimmune attack. Therefore, in order to show definitive islet neogenesis in this form of diabetes an immune tolerance agent must be used in combination with HIP. The NOD mouse model is extremely difficult model because many of the mice may only transiently become diabetic and go into remission, whereas others develop severe diabetes. The timing intervention in this transgenic mouse model is difficult to determine.
In a preliminary study that utilizing the immune tolerance agent, lysophylline (LSF) under development, three NOD mice that became diabetic and were randomized to placebo plus LSF, HIP2 plus LSF and HIP2B plus LSF.

Assay [1] relates to streptozotcin-treated mice rendered diabetic. Description: Repeated study in streptozotocin-treated diabetic mice with HIP2 and Optimized HIP2B. Format: in vivo, mouse. As to conditions: for Total Islet Mass (μm2) / Total Islets: Table 3; for Total Islet Mass (% increase) / Total Islets (% increase): Table 3, vs placebo. From the text:
Differences between the two groups of HIP2B and placebo were statistically significant for both an increase in total islet mass (p=0.040) and total islet numbers (p=0.032), with the HIP2B group indicating larger values for both islet mass (M=416714.67, SD=121,389.01) and islet number (M=94, SD=32.74) than for the placebo group (islet mass: M=127410.67, SD=96930.78, islet number: M=31.67, SD=15.28).

A further assay relates to PANC-1 cells. Description: Impact of HIP and Optimized HIP peptides on PANC-1 cell morphology. The format is cell-based, human. As to conditions: treated four days; for cell morphology changes through 7 days: pictures days 1, 2, 3, 5, 7 at 200×, FIG. 9B. On the procedure: The cells were treated with HIP and Optimized HIP peptides for four days. […] FIG. 9B show the progression of the cell morphology changes through 7 days, with the control on the top, HIP2 in the middle, and HIP2B on the bottom. Pictures were taken on days 1, 2, 3, 5, and 7 at 200× magnification.

Assay [2] concerns ductal fraction of human pancreatic cells. Kind of assay: HIP2B activity in human pancreatic ductal tissue culture (CK19, nuclei and insulin staining). Format: cell-based. As to conditions: cultured 10 days in collagen matrix, treated every other day; FIG. 10. On the procedure: The ductal fraction of human pancreatic cells were cultured for 10 days in a collagen matrix and then treated every other day with HIP2B. Cells were labeled by double antibody staining for CK 19, a marker for ductal tissue, and DAP1 staining to show nuclei and insulin.

The target of the next assay is T1, HIP receptor/EXTL3 (Homo sapiens, UniProt O43909).
T1 construct: It was observed that EXTL3 is expressed in PANC-1 cells; endogenous in cells; host or cells: PANC-1 (human pancreatic ductal/epithelioid cell line)
T1 sequence (O43909 1-919): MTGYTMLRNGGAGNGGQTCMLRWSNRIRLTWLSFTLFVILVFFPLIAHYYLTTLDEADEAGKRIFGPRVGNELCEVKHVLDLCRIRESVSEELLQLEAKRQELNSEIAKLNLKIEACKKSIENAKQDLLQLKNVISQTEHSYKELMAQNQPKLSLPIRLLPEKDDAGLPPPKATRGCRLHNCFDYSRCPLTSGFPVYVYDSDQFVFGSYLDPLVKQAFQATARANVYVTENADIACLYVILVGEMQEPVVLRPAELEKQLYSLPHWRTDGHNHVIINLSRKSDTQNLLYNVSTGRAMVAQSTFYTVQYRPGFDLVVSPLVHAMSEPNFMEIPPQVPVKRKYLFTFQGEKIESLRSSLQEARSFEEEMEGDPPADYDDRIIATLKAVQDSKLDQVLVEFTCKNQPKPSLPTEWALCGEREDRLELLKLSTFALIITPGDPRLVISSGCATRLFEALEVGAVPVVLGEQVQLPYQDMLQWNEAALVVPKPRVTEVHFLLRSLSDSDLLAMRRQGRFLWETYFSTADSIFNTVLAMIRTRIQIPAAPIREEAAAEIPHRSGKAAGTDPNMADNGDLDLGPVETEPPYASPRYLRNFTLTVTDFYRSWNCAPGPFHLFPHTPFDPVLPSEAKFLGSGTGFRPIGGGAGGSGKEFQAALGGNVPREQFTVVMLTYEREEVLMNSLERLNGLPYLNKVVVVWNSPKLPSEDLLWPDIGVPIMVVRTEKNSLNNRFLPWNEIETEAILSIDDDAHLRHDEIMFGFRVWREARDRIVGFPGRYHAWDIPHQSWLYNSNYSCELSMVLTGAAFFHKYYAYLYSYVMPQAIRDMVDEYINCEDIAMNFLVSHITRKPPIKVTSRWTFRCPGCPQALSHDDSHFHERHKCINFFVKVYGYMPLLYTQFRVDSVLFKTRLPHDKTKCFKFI
Description: Cy3 immunofluorescence of HIP receptor/EXTL3 translocation in PANC-1 cells. Format: cell-based. As to conditions: for HIP receptor/EXTL3 trafficking from cytoplasmic membrane to nucleus: trypsin and serum free medium, FIG. 12. As to the method: Impact of HIP2B and HIP2 on HIP Receptor. To provide evidence that EXTL3 interacts with HIP, an experiment was conducted where human ductal cell line PANG-1 was used as a source of EXTL3. Using an antibody directed against EXTL3, PANC-1 cells were immunostained after being grown under conditions that differentiate these cells into islet-like cells. PANC-1 cells were grown in a standard growth medium containing 10% fetal bovine serum, or in a serum free medium (SFM) or SFM containing HIP.
The receptor for Human ProIslet Peptide was labeled using a double antibody method in a stable human pancreatic cell line. The first antibody was a rabbit polyclonal and the second was a goat-anti-rabbit labeled with Cy3 fluorescent dye.
These cells grow normally in serum free media and when treated with trypsin, are destabilized and made competent to undergo developmental changes. Cells were cultured in serum free media (SFM) with and without HIP, and in serum free media with trypsin (TSFM).
When treated with HIP under stable conditions, no changes result. When treated with HIP under developmentally competent conditions, the labeled receptor responds to the presence of HIP by being encapsulated by the cytoplasmic membrane and moving to the nuclear membrane where the signals for differentiation are received.
HIP stimulates the receptor membrane bound protein to be engulfed by the cytoplasmic membrane and transported to the nuclear membrane under adjusted exposure.

Another assay addresses T2, EXTL3 (Homo sapiens, UniProt O43909).
T2 construct: It was observed that EXTL3 is expressed in PANC-1 cells; endogenous in cells; host or cells: PANC-1 (human pancreatic ductal/epithelioid cell line)
T2 sequence (O43909 1-919): T1 sequence (O43909 1-919)
Description: Western blot of EXTL3 in cytosolic and nuclear fractions of PANC-1 cells. The format is cell-based. As to conditions: PANC-1 cells in SFM; FIG. 14; without HIP nuclear EXTL3 observed at 6 hours. On the procedure: Western blot and immunofluorescence analyses of EXTL3 localization were performed in human PANC-1 cells grown under conditions that differentiate these cells into islet-like cells. EXTL3 is predominantly located on the external surface of the cytoplasmic membrane and its structure includes a single transmembrane region located inside of the cytoplasmic membrane. PANC-1 cells were grown in a standard growth medium or in a serum free medium (SFM) containing HIP.
In general terms: Immunoblotting shows a protein as a band on a membrane.

The subject of assay [3] is human pancreatic ductal tissue. Kind of assay: Insulin levels by radioimmunoassay in human pancreatic ductal fraction cultures. The format is cell-based. As to conditions: human ductal tissue cultured with peptide; treated day 10 and 12, lysed after 1 week; vs negative control. As to the method:
In Vitro Proof of Concept of HIP Activity. Human pancreatic islet and ductal fractions were cultured over 10 days and then treated in a blinded study. Radioimmunoassay methods were used to measure insulin levels in the human pancreatic cultures treated with a scrambled peptide serving as a negative control, HIP3, HIP1, HIP2 and hamster-derived INGAP serving as a positive control. Peptides were synthesized (95% pure, research grade).
Duplicate cultures were treated in both ductal and islet fractions of human pancreatic tissue on day 10 and day 12 and then lysed for detection of insulin content after 1 week of treatment HIP peptides, control and INGAP. During 10-day culture, the insulin production goes down and then after treatment with HIP peptides, insulin is produced again.
The ductal and islet tissue were separated using the Ricordi method. Neither ductal cell nor islet culture was completely homogeneous in nature. […] The studies were repeated with similar findings shown in the following chart, with as much as a four-fold increase in insulin levels by radioimmunoassay among human ductal tissue cultured with HIP2.
The ductal fraction graph as shown in FIG. 2 depicts the insulin levels on the y axis as measured by radioimmunoassay after incubation in culture with human pancreatic ductal tissue. […]

In assay [4] the test system is mice rendered diabetic with streptozotocin. Description: Streptozocin diabetic mouse study of HIP3, HIP1, HIP2 and hamster INGAP. The format is in vivo. As to conditions: for total islet numbers vs placebo (significance): FIG. 6, p=0.022; for total islet mass vs placebo (significance): FIG. 6, p=0.05; for Total Islet Mass (μm2) / Total Islets: Table 2, initial study; for Total Islets: histology of pancreata; for Total Islet Mass (% increase) / Total Islets (% increase): Table 2, vs placebo; for islet area: placebo 142,394, p=0.05, FIG. 6. On the procedure:
In Vivo Studies. HIP3, HIP1, HIP2 and hamster INGAP have been the subject of in vivo studies in mice. […] The subject number was selected to yield a sufficient number of diabetic animals for the study and animals were randomly assigned to study groups. All animals were dosed via intraperitoneal injections twice daily (am and pm) for 28 consecutive days. The timing of dose administration remained consistent (±2 hours) during the dosing phase.
Mice were injected intraperitoneally with streptozocin at 40 mg/kg in citrate buffer, pH 4.5, on 5 consecutive days in an attempt to render them diabetic. […] If the blood glucose level in any animal rose to above 400 mg/dL, the animal was treated with insulin. Every 3 days, at the same time each day, a nick was made on the tail and a drop of blood was collected. Glucose measurements were determined using a glucose meter. Group assignments and dose levels were as follows in Table 1:
Study endpoints included the following: changes in glucose; changes in insulin requirements; and histology of post-mortem pancreata.

Where [5] appears, read: 250 μg intraperitoneal twice daily, 28 days.

Where no end group is shown, it is not given here.

As to `C[C@@H](O)CCCCn1c(=O)c2c(ncn2C)n(C)c1=O` [LSF, lysophylline, reference compound], the “glucose levels during the study” value in the assay on NOD mice is given as “gradual elevations in glucose”.
Take “Ac-Ile-Gly-Leu-His-Asp-Pro-Thr-Gln-Gly-Thr-Glu-Pro-Asn-Gly-NH2 (Ac-IGLHDPTQGTEPNG-NH2) [HIP2B]”: in assay [1], the “Total Islet Mass (μm2)” value is given as 416,715 μm2, the “Total Islets” value is listed as 94, the “Total Islet Mass (% increase)” value was determined as 398% and the “Total Islets (% increase)” value came out at 168%. The “rise in the total number of islets compared to placebo-treated mice” value in assay [1] (fold) was “three-fold”. The “islet number (M)” value in assay [1] (mean, SD=32.74, placebo M=31.67, p=0.032) amounted to 94. The “islet mass (M)” value in assay [1] (mean, SD=121,389.01, placebo M=127410.67, p=0.040) stood at 416714.67. Moreover, the “islet size vs placebo-treated mice” value in assay [1] (not statistically significant (t=0.708, p=0.518)) is on record as “normally sized islets were generated”. In the assay on PANC-1 cells (200×, FIG. 9A), the “morphological differences vs control on day 7” value is reported as “histologically more differentiated cells”. Moreover, the “cell morphology changes through 7 days” value in the assay on PANC-1 cells is given as “deviate significantly from their initial appearance”. Also, the “insulin expression after treatment” value in assay [2] is listed as “induced insulin expression in otherwise insulin negative cells”. Also, the “glucose levels during the study” value in the assay with NOD mice is on record as “steadily improved glucose levels”. In addition, in the assay with HIP receptor/EXTL3, the “interaction with receptor/EXTL3 and trafficking to nucleus, compared with HIP2” value was “as effective as HIP2”; the “HIP receptor/EXTL3 trafficking from cytoplasmic membrane to nucleus” value is on record as “stimulated traffic from the HIP receptor on the cytoplasmic membrane into the nucleus”. For the same compound, the “EXTL3 translocation by Western blot” value in the assay with EXTL3 was “enhancing EXTL3 translocation from the cytoplasmic membrane to the nucleus”.
With IGLHDPTQGTEPNG [HIP2], in assay [3], the “increase in insulin levels by radioimmunoassay” value was “four-fold”. Moreover, the “lower mean glucose vs control” value in assay [4] (setting [5]) came to 29.4%. Also, the “day by which mice were completely insulin-free” value in assay [4] (250 μg intraperitoneal twice daily, 28 days, FIG. 4) is no more than 21 days. In addition, in assay [4], the “total islet numbers vs placebo (significance)” value is “significantly increased total islet numbers”, the “total islet mass vs placebo (significance)” value is on record as “significantly greater total islet mass”, the “Total Islet Mass (μm2)” value was determined as 2161782 μm2 and the “Total Islets” value is 454. For the same compound, in assay [4], the “Total Islet Mass (% increase)” value amounted to 153%, the “Total Islets (% increase)” value stood at 62% and the islet area was 360,297 μm(2). Moreover, in assay [1], the “Total Islet Mass (μm2)” value is listed as 202,955 μm2, the “Total Islets” value came to 65, the “Total Islet Mass (% increase)” value was determined as 143% and the “Total Islets (% increase)” value is 86%. For the same compound, in the assay with PANC-1 cells, the “cell morphology changes through 7 days” value is “deviate significantly from their initial appearance”. The “glucose levels during the study” value with NOD mice is reported as “steadily improved glucose levels”. Also, the “HIP receptor/EXTL3 trafficking from cytoplasmic membrane to nucleus” value with HIP receptor/EXTL3 is listed as “stimulated traffic from the HIP receptor on the cytoplasmic membrane into the nucleus”. In addition, the “EXTL3 translocation by Western blot” value in the assay with EXTL3 is “enhancing EXTL3 translocation from the cytoplasmic membrane to the nucleus”.
With IGLHDPTQGTEPNGE [HIP3], the “lower mean glucose vs control” value in assay [4] (setting [5]) is given as 57.3%. For the same compound, in assay [4], the “total islet numbers vs placebo (significance)” value was “significantly increased total islet numbers”, the “total islet mass vs placebo (significance)” value is reported as “significantly greater total islet mass”, the “Total Islet Mass (μm2)” value came out at 1703513 μm2 and the “Total Islets” value amounted to 410. In addition, in assay [4], the “Total Islet Mass (% increase)” value is recorded as 99%, the “Total Islets (% increase)” value was found to be 46% and the islet area is reported as 283,918 μm(2).
With WIGLHDPTQGTEPNG [HIP1], in assay [4] (setting [5]), the “lower mean glucose vs control” value worked out at 14.7%.
